Measured values as given in publication PMC6934184, “Selective DNA-PKcs inhibition extends the therapeutic index of localized radiotherapy and chemotherapy” (The Journal of Clinical Investigation, 2019).

Molecular target: T1, FLT3 D835Y (Homo sapiens, UniProt P36888, D835Y)
T1 construct: purchased Thermo Fisher Scientific (Life Technologies) SelectScreen
Assay: SelectScreen Z'LYTE
Type: biochemical
In short: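 NU5455 was profiled across the SelectScreen Broad panel of kinase activity and binding assays. Z'LYTE reactions such as CSF1R ran at apparent Km ATP, while the Adapta CAMK1 assay used ATP listed as 10. Values are given as percent.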

Compound: CN(C(=O)CN1CCOCC1)c1ccc2sc3c(-c4cccc5c(=O)cc(N6CC7CCC(C6)O7)oc45)cccc3c2c1 [NU5455]
- inhibition at 1 µM: -3.9%
